Data set [1] deals with SCAT and VAT gene expression. In words: cDNA microarray of visceral and subcutaneous adipose tissue of high fat diet fed mice treated with rimonabant. Conditions: C57BL/6J mice, 6 months HFD, then one month rimonabant 10 mg/kg/day; genes up-regulated by HFD (Plac8 and Rp9h down-regulated). The class given is in vivo. The text has this:
C57BL/6J mice, which are obesity-prone (Collins et al. 2004), were fed for 6 months with a high fat diet (HFD).
RNA from 5 different mice per group was extracted from visceral and subcutaneous adipose tissues using peqGOLD Trifast™ (peqlab) and chloroform-isoamylalcool (24:1) extraction. RNA was precipitated with isopropanol and purified by passage over RNeasy columns (Qiagen). RNA quality was checked before and after amplification with a Bioanalyzer 2100 (Agilent). RNA was reverse transcribed and RNA was amplified with MessageAmp™ kit (Ambion). A Mouse Universal Reference (Clontech) was similarly amplified and both adipose tissue and reference RNAs were labeled by an indirect technique with Cy5 and Cy3 according to published protocols (De Fourmestraux et al., 2004). Labeled RNAs were hybridized to microarrays containing 17664 cDNAs prepared at the DNA Array Facility of the University of Lausanne. Scanning, image, and quality control analyses were performed as previously published (de Fourmestraux et al., J. Biol. Chem. 2004 279:50743-53). Data were expressed as log2 intensity ratios (Cy5/Cy3), normalized with a print tip locally weighted linear regression (Lowess) method and filtered based on spot quality and incomplete annotation. All analyses were performed with the R software for statistical computing available at the Comprehensive R Archive Network (cran.us.r-project.org/).

The subject of the next data set is Plac8. Kind of data set: Retroviral transduction of 3T3-L1 cells with shRNA, Plac8 mRNA by RT-PCR. Conditions: 3T3-L1 cells infected 6 hours with retroviral vectors, day 0 prior differentiation, RT-PCR (FIG. 3B). The class given is cell-based, mouse. As to the method: 3T3-L1 cells were cultured in DMEM (Gibco) with 10% FBS (Gibco) at 5% CO2. After retroviral infection (see below), cells were allow to grow to confluence in either 100-mm or 60-mm dishes in DMEM with 10% FBS. Once confluence was reached, cells were exposed to differentiation medium containing dexamethasone (1 μM), insulin (5 μg/ml), and isobutylmethylxanthine ([…]) (DMI). After 2 days cells were maintained in medium containing insulin (5 μg/ml) until ready for harvest at 7 days.
Retroviruses were constructed in the RNAi-Ready pSIREN-RetroQ ZsGreen (pSIREN Clontech) or pMSCV puromycin plasmid (pMSCV, Clontech). Viral constructs were transfected using calcium-phosphate method described in Jordan, M., et al. (2004) into 293 HEK packaging cells along with constructs encoding gag-pol and the VSV-G protein. Supernatants were harvested after 48 h in presence of […] of Trichostatin A (Sigma) and either used immediately or snap frozen and stored at −80° C. for later use. Viral supernatants were added to the cells for 6 hours in the presence of polybrene (4 μg/ml) and diluted two times with fresh medium for the next 15 hours.
Total RNA was isolated from cultured cells using peqGOLD TriFast reagent according to the manufacturer's instructions (Axonlab). First strand cDNA was synthesized from 0.5 μg of total RNA using random primers and Superscript II (Invitrogen). […]

Turning to `Cc1c(C(=O)NN2CCCCC2)nn(-c2ccc(Cl)cc2Cl)c1-c1ccc(Cl)cc1` [rimonabant], the “expression of 34 gene candidates regulated by HFD in SCAT and VAT” value in data set [1] is listed as “normalized”.

B1: shLuc: negative control siRNA sequence against luciferase, SEQ ID NO. 8 (nucleic acid)
chain: GATCCGTGCGTTGCTAGTACCAATTCAAGAGATTGGTACTAGCAACGCACTTTTTTACGCGTG
modifications: listed as DNA, chemistry not fully specified
As to B1, the “knockdown for Plac8 (mRNA)” value in the data set on Plac8 is given as “no inhibition”.

Values taken from US20120035241A1, “USE OF INHIBITORS OF PLAC8 ACTIVITY FOR THE MODULATION OF ADIPOGENESIS” (SANOFI-AVENTIS, priority 2008, published 2012).
